# Measured values reported in patent publication US4280993A, “Process for determining the concentration of benzodiazepines in a body fluid” (priority 1978, dated 1981).
# Columns and labels:
# [1] = tested on: dopamine receptor sites in mamalian brain; conditions: cited from earlier work
# [2] = tested on: receptor powder (ox brain tissue), ^3 H-flunitrazepam binding; assay: Displacement of 3H-flunitrazepam from freeze-dried ox brain receptor powder (lorazepam standard curve); conditions: for Counts per minute: 50 μl added, bound 3H-flunitrazepam
# Protocol: (a) A 25 mM solution of a sodium phosphate buffer, pH 7.0 (Solution I).
# (b) A solution containing 18 ng and 5 μCi of ^3 H-flunitrazepam in 10 ml of 10% ethanol in Solution I (Solution II).
# (c) About 0.3 g of a receptor powder, prepared as described below, suspended in 30 ml of Solution I (Suspension III).
# (d) A standard solution (IV) containing 20 ng/ml of lorazepam, and prepared by dilution with the buffer I of 0.5 ml of 93% ethanolic solution (IVa) of lorazepam, containing 1 μg/ml of lorazepam, to a volume of 25 ml.
# To 15 ml test tubes, each containing 400 μl of the receptor suspension III, are added 100 μl of Solution II and 50 μl of the sample, or 50 μl of the standard solution IV. The tubes are incubated at room temperature for at least 20 minutes and maximum 2 hours. Then, 10 ml of isothermic I are added, and the mixture is immediately filtered through a Whatman GF/C glassfibre filter and washed with 10 ml of isothermic buffer solution I.
# The washed filter is placed in a scintillation vial, containing 5 ml of conventional scintillation fluid, and counted shortly after for 0.5 minute, or better the next day for 5 minutes.
# For the preparation of a standard curve, a series of dilutions of the lorazepam standard solution (IV) is prepared by diluting with the buffer I, and assaying is performed in duplicate with 50 μl of each of these dilutions being added to the test tubes, each of which contains 400 μl of the suspension III and 100 μl of the solution II.
# The average of counts co from the controls is 3187 from which is subtracted the average of the counts from the blanks, which is 160, to give co -cblank.
# The count cx from each sample also has to be reduced by the average counts from the blanks, resulting from background radiation, to give cx -cblank.
# In the accompanying drawing, the test results are plotted as co -cblank/cx -cblank versus the concentration of lorazepam, and the standard curve, therefore, can be used for quantitative determination of the benzodiazepine contents of samples.
# The receptor powder used in the process described above was ox brain tissue which had been homogenized in 3 volumes of iced 1M sucrose solution whereafter the homogenate had been freeze-dried.
smiles,measurement,setting,value
O=C(CCCN1CCC2(CC1)C(=O)NCN2c1ccccc1)c1ccc(F)cc1 [^3 H-spiroperidol],binding to dopamine receptor sites,[1],bind selectively and with high affinity
"O=C1Nc2ccc(Cl)cc2C(c2ccccc2Cl)=NC1O (stereo not drawn) [lorazepam, 7-chloro-5-(2-chlorophenyl)-3-hydroxy-2,3-dihydro-1H-1,4-benzodiazepin-2-one]",c o - cblank / c x - cblank,[2]; drug 6.25 ng/ml,1.41
same,Counts per minute,[2]; drug 6.25 ng/ml,2313 counts per minute
same,c o - cblank / c x - cblank,[2]; drug 12.5 ng/ml,1.73
same,Counts per minute,[2]; drug 12.5 ng/ml,1910 counts per minute
same,c o - cblank / c x - cblank,[2]; drug 25 ng/ml,2.30
same,Counts per minute,[2]; drug 25 ng/ml,1477 counts per minute
same,c o - cblank / c x - cblank,[2]; drug 62.5 ng/ml,3.86
same,Counts per minute,[2]; drug 62.5 ng/ml,944 counts per minute
same,c o - cblank / c x - cblank,[2]; drug 125 ng/ml,6.87
same,Counts per minute,[2]; drug 125 ng/ml,601 counts per minute
same,c o - cblank / c x - cblank,[2]; drug 250 ng/ml,12.51
